Measured values taken from US20030083323A1, “Oral use of dehydroepiandrosterone and some of its derivatives as pigmentation regulators” (priority 2000, published 2003).
Values joined by “and” are separate entries in the source; they are usually repeats but may differ in a detail not shown here. Equal values may be shown once.

Legend:
human skin = assay: Depigmenting power on the skin of DHEA administered orally, colorimetry b* (Minolta CR200 chromameter), randomized double-blind clinical study versus placebo; assay type: in vivo; conditions: oral DHEA 50 mg per day, 12 months, healthy female volunteers 60 to 80 years old; p=0.006, Wilcoxon test
Description: The evaluation was carried out using a randomized double-blind clinical study on 140 individuals. The inclusion criteria were as follows: healthy female volunteers free of any severe pathological condition and 60 to 80 years old.
The treatment consisted, for 12 months, of a daily dose of 50 mg of DHEA, taken in the morning, in the form of a breakable tablet, for half the individuals, or of a placebo for the other half of the individuals.
The skin pigmentation is measured at the start of treatment (TO) and after 12 months (T12), by colorimetry using a Minolta CR200 chromameter (Minolta, 365, route de Saint-Germain 78424 Carrières sur Seine).
This machine describes the colors in a three-dimensional space, using the system of coordinates L, a* and b* and recommended by the CIE in 1976. In this system, L* expresses the luminance or clarity of the color (0 corresponding to black and 100 to white), a is the component for separation between green (negative) and red (positive) and b*, which varies from blue (negative) to yellow (positive) expresses the pigmentation of the skin. The latter parameter was used to evaluate the change in skin color during the treatment.
The machine is calibrated on a standard “white” (surface provided with the machine) at the beginning of each day of measurement and the calibration is controlled throughout the day. […]

[1] = tested on: hair (degree of canities); assay: Effect of oral DHEA on canities, questionnaire at end of randomized double-blind clinical study versus placebo; assay type: in vivo, human; conditions: oral DHEA 50 mg daily, 6 months
Description: The evaluation was carried out using a randomized double-blind clinical study on 140 individuals. The inclusion criteria were as follows: healthy male volunteers free of any severe pathological condition and 60 to 80 years old.
The treatment consisted, for 6 months, of a daily dose of 50 mg of DHEA, taken in the morning, in the form of a breakable tablet, for half the individuals, or of its placebo for the other half of the individuals.
At the end of the 6 months of treatment, the individuals answered a series of questions concerning the state of their hair and the effect of the treatment on various parameters, in particular regarding their degree of canities (improvement, worsening or no change in the number of white hairs).
The statistical analysis is performed with Wilcoxon tests.

[2] = healthy male volunteers 60 to 80 years old, total 64

Compound: C[C@]12CC[C@H](O)CC1=CC[C@@H]1[C@@H]2CC[C@]2(C)C(=O)CC[C@@H]12 [DHEA, dehydroepiandrosterone]
- skin pigmentation (b*) compared to the placebo group (human skin): significant decrease in pigmentation
- degree of canities: Improvement (number of individuals, number of white hairs decreased) [1, 2]: 5
- degree of canities: No change (number of individuals) [1, 2]: 59
- degree of canities: Worsening (number of individuals) [1, 2]: no individual experienced a worsening and 0
- overall effect on hair pigmentation versus placebo ([1]; difference between treatments significant, p=0.0094, Wilcoxon test): propigmenting effect on hair
